The text below walks through data of ChEMBL document CHEMBL5226280, “Non-hydroxamate inhibitors of 1-deoxy-d-xylulose 5-phosphate reductoisomerase (DXR): A critical review and future perspective” (Eur J Med Chem, 2021).

For assay [1], the target named is T1, 1-deoxy-D-xylulose 5-phosphate reductoisomerase (Escherichia coli K-12, UniProt P45568).
T1 sequence (P45568 whole entry): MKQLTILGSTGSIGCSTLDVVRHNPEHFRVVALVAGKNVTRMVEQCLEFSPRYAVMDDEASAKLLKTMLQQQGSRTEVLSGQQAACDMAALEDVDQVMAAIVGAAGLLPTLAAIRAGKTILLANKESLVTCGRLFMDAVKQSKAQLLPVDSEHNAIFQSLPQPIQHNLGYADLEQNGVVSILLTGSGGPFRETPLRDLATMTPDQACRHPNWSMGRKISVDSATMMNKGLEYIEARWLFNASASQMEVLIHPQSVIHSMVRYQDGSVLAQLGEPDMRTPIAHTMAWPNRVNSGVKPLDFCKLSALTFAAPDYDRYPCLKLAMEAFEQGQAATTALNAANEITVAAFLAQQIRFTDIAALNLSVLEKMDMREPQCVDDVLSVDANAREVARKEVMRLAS
In words: Inhibition of Escherichia coli DXR assessed as inhibition constant pre-incubated for 2 mins in presence of NADPH by spectrophotometric assay.

The subject of assay [2] is Escherichia coli. In words: Antimicrobial activity against Escherichia coli deltaGlpT JW2234-2 assessed as minimal inhibitory concentration incubated for 18 hrs by microdilution assay. Type of assay: functional.
The test system of assay [3] is Escherichia coli. In words: Antimicrobial activity against Escherichia coli BW25113 assessed as minimal inhibitory concentration incubated for 18 hrs by microdilution assay. It counts as functional.
In assay [4] the target is T1, 1-deoxy-D-xylulose 5-phosphate reductoisomerase. Briefly: Inhibition of recombinant Escherichia coli DXR in presence of NADPH.
For another assay, the system named is Plasmodium falciparum. Briefly: Antiplasmodial activity against Plasmodium falciparum K1 infected in human erythrocyte assessed as assessed as inhibition of parasite growth. Type of assay: functional, organism-based.
Assay [5] deals with T1, 1-deoxy-D-xylulose 5-phosphate reductoisomerase. In words: Inhibition of His-tagged Escherichia coli DXR using DXP as substrate incubated for 1 min in presence of NADPH by UV-Vis spectrophotometric assay.

Values after ≈ are worked out from the molar mass of the structure shown. Bounds are passed on as bounds.

Consider `O=C(CCCP(=O)(O)O)NO`, for which the IC50 in assay [1] is 0.17 µM. For the compound `CN(O)C(=O)CCCP(=O)(O)O`, the IC50 in assay [1] stood at 0.048 µM. Take `CN1CC(=O)OB(CCCP(=O)(O)O)OC(=O)C1`: the MIC90 in the assay on Escherichia coli [2] turned out to be 52 µg/mL (≈ 186 µM); with Escherichia coli [3], 63 µg/mL (≈ 226 µM). For `CN(O)C(=O)CCCC(=O)O`, the IC50 in assay [4] is 25 µM. For the compound `CS(=O)(=O)c1ccccc1NC(=O)CCCP(=O)(O)O`, the IC50 with Plasmodium falciparum is above 64 µM. Turning to `O=P(O)(O)CCCB(O)O`, the MIC90 with Escherichia coli [2] was 37 µg/mL (≈ 220 µM); in the assay on Escherichia coli [3], 53 µg/mL (≈ 316 µM). The IC50 in assay [5] worked out at 125 µM. Take `CC(=O)c1ccccc1NC(=O)CCCP(=O)(O)O`: the IC50 in the assay with Plasmodium falciparum is above 64 µM. Consider `O=C(CCCP(=O)(O)O)Nc1ccccc1F`, for which the IC50 in the assay on Plasmodium falciparum is above 64 µM.
